Tests used:
Homo sapiens [1] = experiment: Cmax in healthy human plasma after 50 mg oral dose, normalised for 70 kg subject; format: ADME, organism-based; set-up: dose 50 mg, route oral; settings: in vivo
[2] = AUC (0 to infinity) in healthy human plasma at 250 mg, po administered as single dose; format: ADME, organism-based; set-up: dose 250 mg, time infinity, route oral
[3] = Half life in healthy human plasma at 25 mg, po administered as single dose; format: ADME, organism-based
[4] = Cmax in healthy human plasma at 50 mg, po administered as single dose; format: ADME, organism-based; set-up: dose 50 mg, route oral
[5] = Drug concentration in healthy human urine assessed as conjugated drug level at 250 mg, po administered as single dose after 48 hrs; format: ADME, organism-based; settings: in vivo
Homo sapiens [6] = experiment: Toxicity in healthy human assessed as adverse event occurrence at 100 mg, po administered as single dose; format: organism-based; settings: in vivo
[7] = Cmax in healthy human plasma at 250 mg, po administered as single dose; format: ADME, organism-based; set-up: dose 250 mg, route oral
[8] = Tmax in healthy human plasma at 250 mg, po administered as single dose; format: ADME, organism-based
[9] = Apparent oral clearance in healthy human plasma at 250 mg, po administered as single dose; format: ADME, organism-based
Homo sapiens [10] = experiment: Toxicity in healthy human assessed as adverse event occurrence at 25 mg, po administered as single dose; format: organism-based; settings: in vivo
[11] = Tmax in healthy human plasma at 25 mg, po administered as single dose; format: ADME, organism-based
Homo sapiens [12] = experiment: Dose normalized AUC (0 to infinity) in healthy human plasma at 100 mg, po administered as single dose; format: ADME, organism-based; set-up: dose 100 mg, time infinity, route oral; settings: in vivo
Homo sapiens [13] = experiment: Cmax in healthy human plasma after 25 mg oral dose, normalised for 70 kg subject; format: ADME, organism-based; set-up: dose 25 mg, route oral; settings: in vivo
[14] = Apparent oral clearance in healthy human plasma at 25 mg, po administered as single dose; format: ADME, organism-based
[15] = Half life in healthy human plasma at 50 mg, po administered as single dose; format: ADME, organism-based
Homo sapiens [16] = experiment: Dose normalized AUC (0 to infinity) in healthy human plasma at 25 mg, po administered as single dose; format: ADME, organism-based; set-up: dose 25 mg, time infinity, route oral; settings: in vivo
[17] = Half life in healthy human plasma at 100 mg, po administered as single dose; format: ADME, organism-based
[18] = Cmax in healthy human plasma at 25 mg, po administered as single dose; format: ADME, organism-based; set-up: dose 25 mg, route oral
[19] = Drug concentration in healthy human urine assessed as unconjugated drug level at 250 mg, po administered as single dose after 48 hrs; format: ADME, organism-based; settings: read-out: Drug uptake
[20] = AUC (0 to infinity) in healthy human plasma at 25 mg, po administered as single dose; format: ADME, organism-based; set-up: dose 25 mg, time infinity, route oral
[21] = Apparent oral clearance in healthy human plasma at 50 mg, po administered as single dose; format: ADME, organism-based
Homo sapiens [22] = experiment: Toxicity in healthy human assessed as adverse event occurrence at 250 mg, po administered as single dose; format: organism-based; settings: in vivo
[23] = Half life in healthy human plasma at 250 mg, po administered as single dose; format: ADME, organism-based
Homo sapiens [24] = experiment: Dose normalized AUC (0 to infinity) in healthy human plasma at 50 mg, po administered as single dose; format: ADME, organism-based; set-up: dose 50 mg, time infinity, route oral; settings: in vivo
Homo sapiens [25] = experiment: Toxicity in healthy human assessed as adverse event occurrence at 50 mg, po administered as single dose; format: organism-based; settings: in vivo
[26] = AUC (0 to infinity) in healthy human plasma at 100 mg, po administered as single dose; format: ADME, organism-based; set-up: dose 100 mg, route oral, time infinity
[27] = Apparent oral clearance in healthy human plasma at 100 mg, po administered as single dose; format: ADME, organism-based
[28] = Tmax in healthy human plasma at 100 mg, po administered as single dose; format: ADME, organism-based
Homo sapiens [29] = experiment: Cmax in heathy human plasma after 100 mg oral dose, normalised for 70 kg subject; format: ADME, organism-based; set-up: dose 100 mg, route oral; settings: in vivo
Homo sapiens [30] = experiment: Cmax in healthy human plasma after 250 mg oral dose, normalised for 70 kg subject; format: ADME, organism-based; set-up: dose 250 mg, route oral; settings: in vivo
Homo sapiens [31] = experiment: Dose normalized AUC (0 to infinity) in healthy human plasma at 250 mg, po administered as single dose; format: ADME, organism-based; set-up: dose 250 mg, route oral, time infinity; settings: in vivo
[32] = Tmax in healthy human plasma at 50 mg, po administered as single dose; format: ADME, organism-based
[33] = AUC (0 to infinity) in healthy human plasma at 50 mg, po administered as single dose; format: ADME, organism-based; set-up: dose 50 mg, route oral, time infinity

For `C=C(C)[C@@H]1CC[C@]2(C(=O)O)CC[C@]3(C)[C@H](CC[C@@H]4[C@@]5(C)CC[C@H](OC(=O)CC(C)(C)C(=O)O)C(C)(C)[C@@H]5CC[C@]43C)[C@@H]12` [BEVIRIMAT], the Cmax (Homo sapiens [1]) was 7300 ng/mL, the AUC(0-inf) [2] was 1800 µg·h/mL and the half-life [3] was 55.8 h. The Cmax [4] was 6060 ng/mL, the Drug uptake [5] was 0.82 %ID and the Activity (Homo sapiens [6]) was 50%. The Cmax [7] was 30000 ng/mL, the Tmax [8] was 2.5 h and the CL/F [9] was 2.43 mL/h/kg. The Activity (Homo sapiens [10]) was 16.7%, the Tmax [11] was 1.75 h and the AUC (Homo sapiens [12]) was 1014 µg·h/mL. It also gave a Cmax (Homo sapiens [13]) of 2800 ng/mL, a CL/F [14] of 2.89 mL/h/kg and a half-life [15] of 56.7 h. It also gave an AUC (Homo sapiens [16]) of 170.2 µg·h/mL, a half-life [17] of 75.4 h and a Cmax [18] of 2240 ng/mL. It also gave a dose excreted at 48 h [19] of 0.82%, an AUC(0-inf) [20] of 151 µg·h/mL and a CL/F [21] of 2.76 mL/h/kg. For the same compound, the Activity (Homo sapiens [22]) was 33.3%, the half-life [23] was 69 h and the AUC (Homo sapiens [24]) was 362.1 µg·h/mL. It also gave an Activity (Homo sapiens [25]) of 16.7%, an AUC(0-inf) [26] of 983 µg·h/mL and a CL/F [27] of 1.75 mL/h/kg. For the same compound, the Tmax [28] was 2 h, the Cmax (Homo sapiens [29]) was 14900 ng/mL and the Cmax (Homo sapiens [30]) was 31100 ng/mL. The AUC (Homo sapiens [31]) was 2221.8 µg·h/mL, the Tmax [32] was 1 h and the AUC(0-inf) [33] was 312 µg·h/mL.
